Results on 13 molecules are retold here after patent US20090280133A1, “PHARMACEUTICAL COMPOUNDS AS INHIBITORS OF CELL PROLIFERATION AND THE USE THEREOF” (Myriad Genetics, Incorporated, priority 2006, published 2009).

For assay [1], the system named is P388 murine leukemia cell line. In words: Identification of cytotoxic agents: P388 cell viability (ATP-Lite). The class given is cell-based. The following applies: Mus musculus; P388 cells, 72 hours, intracellular ATP (ATP-Lite), concentration required to inhibit growth by 50%. The procedure:
A P388 murine leukemia cell line was obtained from NCI, Frederick, Md. P388 cells were cultured in RPMI-1640 supplemented with 10% fetal bovine serum, 2 mM Glutamax, 1 mM sodium pyruvate, 0.1 mM non-essential amino acids and 10 mM HEPES. Cells were grown at 37° C. in a humidified 5% CO2 atmosphere. Exponentially growing P388 cells were plated at 5,000 cells/well in a 96-well flat-bottomed microtiter plate (Corning, Costar #3595). […] Cellular viability was determined 72 hours later by measuring intracellular ATP with ATP-Lite assay system. The effect of compounds on cell viability was calculated by comparing the ATP levels of cells exposed to test compound with those of cells exposed to DMSO. A semi-log plot of relative ATP levels versus compound concentration was used to calculate the compound concentration required to inhibit growth by 50% (IC50). Data was analyzed by Prism software (GraphPad; San Diego, Calif.) by fitting it to a sigmoidal dose response curve.

The test system of assay [2] is P388/ADR cell lines (overexpress multidrug resistance pump MDR-1). In words: Multidrug resistant cell assay: P388/ADR cell viability (ATP-lite). It is filed as cell-based. As to conditions: Mus musculus, P388/ADR cells overexpressing MDR-1 (Pgp-1), 72 hours. The source says: Cytotoxicity of compounds in multidrug resistant cells can be determined by administering compounds to cell lines that overexpress the multidrug resistance pump MDR-1 and determining the viability of the cell lines. P388/ADR cell lines are known to overexpress the multidrug resistance pump MDR-1 (also known as P-glycoprotein-1; Pgp-1).
P388/ADR cell lines are obtained from American Type Culture Collection (Manassas, Va.) and maintained in RPMI-1640 media supplemented with 10% FCS, 10 units/ml penicillin and streptomycin, 2 mM Glutamax and 1 mM sodium pyruvate (Invitrogen Corporation, Carlsbad, Calif.). For compound testing, cells are plated in 96 well dishes at a concentration of 1.5×10^4 cells/well. Cells are allowed to adhere to the plate overnight and then incubated with compounds at final concentrations ranging from 0.13 nM to 10 uM for 72 hours. Cell viability is then assessed using the ATP-lite reagent (Perkin Elmer, Foster City, Calif.). Plates are read on a Wallac Topcount luminescence reader (Perkin Elmer, Foster City, Calif.) and the results graphed in Prism software (Graphpad Software, Inc., San Diego, Calif.). Non-linear regression with variable slope analysis is performed to obtain IC50 concentration values.

As for `COc1ccc(N(C)c2ccnc(Cl)n2)cc1` [Example 1, (2-Chloro-pyrimidin-4-yl)-(4-methoxyphenyl)-methyl amine], the IC50 came out at 280 nM in assay [1] and 480 nM in assay [2].

In the case of `COC(=O)c1cc(N(C)c2ccc(OC)cc2)nc(Cl)n1` [Example 2, Methyl 2-chloro-6-[(4-methoxyphenyl)(methyl)amino]pyrimidine-4-carboxylate], the IC50 in assay [1] amounted to 9000 nM.

As to `CCOC(=O)c1cnc(SC)nc1N(C)c1ccc(OC)cc1` [Example 3, Ethyl 4-[(4-methoxyphenyl)(methyl)amino]-2-(methylthio)pyrimidine-5-carboxylate], the IC50 is 54 nM in assay [1] and 78 nM in assay [2].

On to `COc1ccc(N(C)c2cc(C)nc(N(C)C)n2)cc1` [Example 4, N^4-(4-Methoxyphenyl)-N^2,N^2,N^4,6-tetramethylpyrimidine-2,4-diamine], for which the IC50 in assay [1] was 1060 nM; in assay [2] it was 1100 nM.

As to `COc1ccc(N(C)c2ccnc(N(C)C)n2)cc1` [Example 5, N^4-(4-Methoxyphenyl)-N^2,N^2,N^4-trimethylpyrimidine-2,4-diamine], the IC50 amounted to 7900 nM in assay [1] and 6200 nM in assay [2].

As for `COc1ccc(N(C)c2ccnc(C#N)n2)cc1` [Example 6, 4-[(4-Methoxyphenyl)(methyl)amino]pyrimidine-2-carbonitrile], half-maximal inhibition in assay [1] (IC50) was put at 6800 nM. This counts as single-digit micromolar.

For `COc1ccc(N(C)c2cc(C)nc(C#N)n2)cc1` [Example 7, 4-[(4-Methoxyphenyl)(methyl)amino]-6-methylpyrimidine-2-carbonitrile], the IC50 in assay [1] was determined as 2500 nM; in assay [2], 3900 nM.

On to `COc1ccc(N(C)c2cc(Cl)nc(N)n2)cc1` [Example 8, 6-Chloro-N^4-(4-methoxyphenyl)-N^4-methylpyrimidine-2,4-diamine], for which the IC50 in assay [1] came out at 1900 nM; in assay [2], 2400 nM.

With `COc1ccc(N(C)c2ccnc(CN)n2)cc1` [Example 9, 2-(Aminomethyl)-N-(4-methoxyphenyl)-N-methylpyrimidin-4-amine], the figures for the IC50 in assay [1] and in assay [2] were 1900 nM and 3100 nM, respectively.

Regarding `COc1ccc(N(C)c2cc(-c3ccccc3)nc(C)n2)cc1` [Example 10], the IC50 was 1600 nM in assay [1] and 800 nM in assay [2].

Regarding `COc1ccc(N(C)c2cc(C)nc(C)n2)cc1` [Example 11, (2,6-dimethyl-pyrimidin-4-yl)-(4-methoxyphenyl)-methylamine], the IC50 worked out at 310 nM in assay [1] and 400 nM in assay [2].

For the molecule `COc1ccc(N(C)c2nc(C)ncc2NS(=O)(=O)c2ccc(OC)cc2)cc1` [Example 12, 4-Methoxy-N-{4-[(4-methoxyphenyl)-methylamino]-2-methyl-pyrimidin-5-yl)-benzenesulfonamide], the IC50 in assay [1] stood at 57 nM; in assay [2], 62 nM.

Consider `COc1ccc(S(=O)(=O)Nc2cnc(C)nc2N(C)c2ccc(O)cc2)cc1` [Example 13, N-{4-[(4-hydroxyphenyl)-methylamino]-2-methyl-pyrimidin-5-yl)-4-methyoxy-benzenesulfonamide], for which the IC50 in assay [1] is 1400 nM; in assay [2], 7400 nM.

A word on the IC50: it is the concentration needed to halve the response being measured. Low readings indicate greater potency in that assay, high ones weaker potency in that assay.
